Source: ChEMBL document CHEMBL3045237, “Synthesis, DNA binding, hemolytic, and anti-cancer assays of curcumin I-based ligands and their ruthenium(III) complexes” (Med Chem Res, 2013)

Tests used:
HepG2 [1] = test: Growth inhibition of Homo sapiens (human) HepG2 cells at 0.005 mg/ml after 24 hr by MTS assay; type: functional; settings: HepG2, 24 h, read-out: GI
HepG2 [2] = test: Growth inhibition of Homo sapiens (human) HepG2 cells at 0.5 mg/ml after 24 hr by MTS assay; type: functional; settings: HepG2, 24 h, read-out: GI
MDA-MB-231 [3] = test: Growth inhibition of Homo sapiens (human) MDA-MB-231 cells at 0.0005 mg/ml after 24 hr by MTS assay; type: functional; settings: MDA-MB-231, 24 h, read-out: GI
MDA-MB-231 [4] = test: Growth inhibition of Homo sapiens (human) MDA-MB-231 cells at 0.005 mg/ml after 24 hr by MTS assay; type: functional; settings: MDA-MB-231, 24 h, read-out: GI
MDA-MB-231 [5] = test: Growth inhibition of Homo sapiens (human) MDA-MB-231 cells at 0.05 mg/ml after 24 hr by MTS assay; type: functional; settings: MDA-MB-231, 24 h, read-out: GI
HeLa [6] = test: Cytotoxicity against Homo sapiens (human) HeLa cells after 24 hr by MTS assay; type: functional, cell-based
HeLa [7] = test: Growth inhibition of Homo sapiens (human) HeLa cells at 0.005 mg/ml after 24 hr by MTS assay; type: functional; settings: read-out: GI
HeLa [8] = test: Growth inhibition of Homo sapiens (human) HeLa cells at 0.0005 mg/ml after 24 hr by MTS assay; type: functional; settings: read-out: GI
HeLa [9] = test: Growth inhibition of Homo sapiens (human) HeLa cells at 0.05 mg/ml after 24 hr by MTS assay; type: functional; settings: read-out: GI
HeLa [10] = test: Growth inhibition of Homo sapiens (human) HeLa cells at 0.5 mg/ml after 24 hr by MTS assay; type: functional; settings: read-out: GI
[11] = Hemolytic activity against Homo sapiens (human) RBC at 100 ug/ml after 1 hr by spectrophotometric analysis relative to control; type: ADME, cell-based, Erythrocyte; settings: red blood cells (RBC), read-out: Activity
[12] = Hemolytic activity against Homo sapiens (human) RBC at 50 ug/ml after 1 hr by spectrophotometric analysis relative to control; type: cell-based, Erythrocyte; settings: red blood cells (RBC), read-out: Activity
[13] = Hemolytic activity against Homo sapiens (human) RBC at 5 ug/ml after 1 hr by spectrophotometric analysis relative to control; type: ADME, cell-based, Erythrocyte; settings: red blood cells (RBC), read-out: Activity
[14] = Hemolytic activity against Homo sapiens (human) RBC at 10 ug/ml after 1 hr by spectrophotometric analysis relative to control; type: ADME, cell-based, Erythrocyte; settings: red blood cells (RBC), read-out: Activity
[15] = Hemolytic activity against Homo sapiens (human) RBC at 20 ug/ml after 1 hr by spectrophotometric analysis relative to control; type: ADME, cell-based, Erythrocyte; settings: red blood cells (RBC), read-out: Activity
HT-29 = test: Growth inhibition of Homo sapiens (human) HT-29 cells at 0.5 mg/ml after 24 hr by MTS assay; type: functional; settings: HT-29, 24 h, read-out: GI
MDA-MB-231 [16] = test: Growth inhibition of Homo sapiens (human) MDA-MB-231 cells at 0.5 mg/ml after 24 hr by MTS assay; type: functional; settings: MDA-MB-231, 24 h, read-out: GI

SMILES	inhibition of growth at 5 µg/mL (HepG2 [1]) [%]	inhibition of growth at 500 µg/mL (HepG2 [2]) [%]	inhibition of growth at 0.5 µg/mL (MDA-MB-231 [3]) [%]	inhibition of growth at 5 µg/mL (MDA-MB-231 [4]) [%]	inhibition of growth at 50 µg/mL (MDA-MB-231 [5]) [%]	IC50 (HeLa [6]) [nM]	inhibition of growth at 5 µg/mL (HeLa [7]) [%]	inhibition of growth at 0.5 µg/mL (HeLa [8]) [%]	inhibition of growth at 50 µg/mL (HeLa [9]) [%]	inhibition of growth at 500 µg/mL (HeLa [10]) [%]	hemolysis at 1 h, 100 ug/ml [11] [%]	hemolysis at 1 h, 50 ug/ml [12] [%]	hemolysis at 1 h, 5 ug/ml [13] [%]	hemolysis at 1 h, 10 ug/ml [14] [%]	hemolysis at 1 h, 20 ug/ml [15] [%]	inhibition of growth at 500 µg/mL (HT-29) [%]	inhibition of growth at 500 µg/mL (MDA-MB-231 [16]) [%]
COc1cc(/C=C/C(=N\NC(N)=O)C(=Cc2ccc(O)cc2)C(/C=C/c2ccc(O)c(OC)c2)=N/NC(N)=O)ccc1O	0.51	0.74	21.7	12.9	7.64	20.4	33.5	30.8	35	13.8	21	18	8	10	12		
COc1cc(/C=C/C(=N\NC(N)=O)C(=Cc2cc(OC)c(O)c(OC)c2)C(/C=C/c2ccc(O)c(OC)c2)=N/NC(N)=O)ccc1O		48.1	8.79				15.8	40.1	28.1	53.1	15	9	2	4	3.9	46.5	33.6
N#Cc1ccc(C(c2ccc(C#N)cc2)n2cncn2)cc1 [LETROZOLE]											98	80	22	32	60		
